Results from US11220522B2, “Cytotoxic platinum complex, its preparation and therapeutic use” (City University of Hong Kong, priority 2016, dated 2022).

How the values were obtained:
[1] = test system: cisplatin-resistant A2780cisR cells
Procedure: (§1) Human ovarian carcinoma A2780 and cisplatin-resistant A2780cisR cells were cultured in RPMI 1640 with 10% FBS and 100 units penicillin/streptomycin. Human breast adenocarcinoma MCF-7, human colorectal carcinoma HCT116, human lung carcinoma A549, and cisplatin-resistant A549cisR cells were cultured in DMEM containing 10% FBS and 100 units penicillin/streptomycin. Human fetal lung fibroblast MRC-5 cells were cultured in MEM with 10% FBS, 1% L-glutamine, 1% non-essential amino acids, and 1% sodium pyruvate. […] All cells were incubated at 37° C. in 5% CO2.
(§2) For each of these assays, cells were seeded in 96-well plates at a certain density. For instance, A2780 cells were seeded in a 96-well plate at the density of 1,500 cells per well and incubated till the confluence reached about 30%. Cells were then treated with medium containing varying concentrations of compounds for 72 h at 37° C. in 5% CO2. […] For MTT assay, after incubation for 72 h, the medium containing compounds was replaced by FBS-free medium with 1 mg/mL MTT for 4 h incubation. DMSO was added to each well when the medium containing MTT was removed after incubation. The absorbance was measured at 570 and 630 nm. Cells incubated with medium containing 1% DMF only were used as controls. The seeded cell density for A549, MCF-7 and HCT116 was 1,500 cells/well, and for A2780cisR, A549cisR, and MRC-5 was 2,500 cells were seeded to each well. The absorbance was tested at 570 and 630 nm.
(§3) Values are the average of the 96-wells for each tested compound, and the reported errors are the corresponding standard deviations.

[2] = test system: Human ovarian carcinoma A2780 cells
Procedure: as §1
(§4) For each of these assays, cells were seeded in 96-well plates at a certain density. For instance, A2780 cells were seeded in a 96-well plate at the density of 1,500 cells per well and incubated till the confluence reached about 30%. Cells were then treated with medium containing varying concentrations of compounds for 72 h at 37° C. in 5% CO2. […] For MTT assay, after incubation for 72 h, the medium containing compounds was replaced by FBS-free medium with 1 mg/mL MTT for 4 h incubation. DMSO was added to each well when the medium containing MTT was removed after incubation. The absorbance was measured at 570 and 630 nm. Cells incubated with medium containing 1% DMF only were used as controls. […] The absorbance was tested at 570 and 630 nm. […]

[3] = test system: cisplatin-resistant A549cisR cells
Procedure: as §1, §2, §3

[4] = test system: Human fetal lung fibroblast MRC-5 cells
Procedure: as §1, §2, §3

[5] = test system: human lung carcinoma A549 cells
Procedure: as §1, §4

[6] = test system: Human breast adenocarcinoma MCF-7 cells
Procedure: Human breast adenocarcinoma MCF-7, human colorectal carcinoma HCT116, human lung carcinoma A549, and cisplatin-resistant A549cisR cells were cultured in DMEM containing 10% FBS and 100 units penicillin/streptomycin. […] All cells were incubated at 37° C. in 5% CO2.
as §2, §3

[7] = test system: human colorectal carcinoma HCT116 cells; experiment: MTT cytotoxicity assay, HCT116 cells; format: cell-based; details: maximum over the cells tested (HCT116)
Procedure: The absorbance was measured at 570 and 630 nm. […].

[8] = test system: cisplatin-resistant A2780cisR cells; experiment: MTT cytotoxicity assay, A2780cisR cells
Procedure: as §1, §2, §3

[9] = test system: cisplatin-resistant A549cisR cells; experiment: MTT cytotoxicity assay, A549cisR cells
Procedure: as §1, §2, §3

[10] = MTT cytotoxicity assay, MRC-5 normal cells; details: human, MRC-5 fetal lung fibroblast cells (normal cells)
Procedure: as §1, §2, §3

Chalcone
IC50 [1]: > 35 µM
IC50 [2]: > 35 µM
IC50 [3]: > 40 µM
IC50 [4]: 65.1 ± 9 µM
IC50 [5]: > 40 µM
IC50 [6]: > 50 µM

[NH2][Pt]([NH2])([OH])([Cl])([Cl])[O]C(=O)COc1ccc(/C=C/C(=O)c2ccc(Cl)c(Cl)c2)cc1 [monochalcoPt(IV)]
fold increase in cytotoxicity compared with cisplatin [7]: ≤ 422 fold
IC50 (cytotoxicity, MTT assay) ([8]; A2780cisR cells, 72 h drug treatment): nanomolar
IC50 (cytotoxicity, MTT assay) ([9]; A549cisR cells, 72 h drug treatment): nanomolar
IC50 at 72 h [10]: 0.11 ± 0.03 µM

[NH2][Pt]([NH2])([Cl])([Cl])([O]C(=O)COc1ccc(/C=C/C(=O)c2ccc(Cl)c(Cl)c2)cc1)[O]C(=O)COc1ccc(/C=C/C(=O)c2ccc(Cl)c(Cl)c2)cc1 [chalcoplatin]
IC50 at 72 h [10]: 9 ± 0.4 µM

N.N.[Cl][Pt][Cl] [cDDP, cis-diamminedichloroplatinum]
RF (Resistant Factor) ([8]; IC50 in A2780CisR/IC50 in A2780 cells): 16
RF (Resistant Factor) ([9]; IC50 in A549cisR/IC50 in A549 cells): 4.3
